Measurements as given in patent publication US10208089B2, “Modulation of complement activity” (priority 2014, dated 2019).
Starred links: 1 amine or outer side, 2 acyl side, 3 side chain; linkers in the order of their positions; H or OH if unused. Positions of bridges follow the written chain, without caps; N, C: chain ends. Non-standard residues stand in square brackets, D forms with d. Residues, ends and D or L forms follow the SMILES beside them. Trp(7-aza) = N[C@@H](Cc1c[nH]c2ncccc12)C(=O)O; mXylylene = c1cc(C[*:1])cc(C[*:2])c1; pXylylene = c1cc(C[*:2])ccc1C[*:1]; hPhe = N[C@@H](CCc1ccccc1)C(=O)O; dChg = N[C@@H](C(=O)O)C1CCCCC1; Chg = N[C@H](C(=O)O)C1CCCCC1; Phg = N[C@H](C(=O)O)c1ccccc1; NMeS = CN[C@@H](CO)C(=O)O; hCys = N[C@@H](CCS)C(=O)O; Nva = CCC[C@H](N)C(=O)O; Aib = CC(C)(N)C(=O)O

Biological target: C5 (Homo sapiens, UniProt P01031)
Sequence (P01031 19-1676): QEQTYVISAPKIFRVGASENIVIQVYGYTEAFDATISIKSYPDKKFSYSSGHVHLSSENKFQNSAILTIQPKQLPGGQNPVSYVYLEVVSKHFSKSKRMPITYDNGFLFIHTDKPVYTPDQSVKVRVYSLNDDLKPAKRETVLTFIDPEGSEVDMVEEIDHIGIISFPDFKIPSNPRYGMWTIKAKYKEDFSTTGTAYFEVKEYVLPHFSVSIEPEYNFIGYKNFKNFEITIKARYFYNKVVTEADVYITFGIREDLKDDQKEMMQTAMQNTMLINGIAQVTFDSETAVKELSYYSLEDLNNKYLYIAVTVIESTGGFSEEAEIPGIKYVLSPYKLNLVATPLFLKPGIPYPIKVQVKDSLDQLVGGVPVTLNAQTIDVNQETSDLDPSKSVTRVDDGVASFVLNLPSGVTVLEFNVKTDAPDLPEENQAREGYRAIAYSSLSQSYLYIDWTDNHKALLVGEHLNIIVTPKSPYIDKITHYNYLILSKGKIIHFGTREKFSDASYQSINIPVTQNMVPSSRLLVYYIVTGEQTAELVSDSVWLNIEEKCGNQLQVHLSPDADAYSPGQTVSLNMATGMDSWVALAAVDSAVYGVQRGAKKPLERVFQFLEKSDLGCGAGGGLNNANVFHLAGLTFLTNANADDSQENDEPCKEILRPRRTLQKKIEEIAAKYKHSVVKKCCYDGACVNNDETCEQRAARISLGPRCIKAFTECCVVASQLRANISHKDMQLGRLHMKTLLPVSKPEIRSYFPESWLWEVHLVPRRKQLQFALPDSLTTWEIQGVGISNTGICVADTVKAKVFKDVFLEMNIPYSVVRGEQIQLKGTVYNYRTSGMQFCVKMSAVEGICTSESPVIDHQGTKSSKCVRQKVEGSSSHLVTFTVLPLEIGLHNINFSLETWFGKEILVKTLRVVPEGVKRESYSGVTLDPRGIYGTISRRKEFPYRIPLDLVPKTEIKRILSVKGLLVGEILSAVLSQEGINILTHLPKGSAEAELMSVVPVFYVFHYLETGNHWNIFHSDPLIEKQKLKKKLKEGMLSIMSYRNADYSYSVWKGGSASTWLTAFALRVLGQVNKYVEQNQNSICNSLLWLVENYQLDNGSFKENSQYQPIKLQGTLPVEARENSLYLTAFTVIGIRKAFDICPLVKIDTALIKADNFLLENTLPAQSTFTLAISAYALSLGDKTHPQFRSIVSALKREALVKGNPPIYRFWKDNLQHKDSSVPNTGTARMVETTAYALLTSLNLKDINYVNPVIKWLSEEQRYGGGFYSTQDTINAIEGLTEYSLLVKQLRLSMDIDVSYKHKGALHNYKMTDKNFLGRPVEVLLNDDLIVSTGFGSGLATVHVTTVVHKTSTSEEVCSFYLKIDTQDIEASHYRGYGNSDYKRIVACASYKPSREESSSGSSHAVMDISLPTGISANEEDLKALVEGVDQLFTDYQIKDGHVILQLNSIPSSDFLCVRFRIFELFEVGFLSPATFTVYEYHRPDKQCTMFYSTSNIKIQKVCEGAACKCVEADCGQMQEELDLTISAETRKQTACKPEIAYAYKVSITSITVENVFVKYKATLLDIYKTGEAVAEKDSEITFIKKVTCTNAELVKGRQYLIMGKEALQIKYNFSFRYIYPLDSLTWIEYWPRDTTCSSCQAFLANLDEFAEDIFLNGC
Test: Human hemolysis assay (RBC lysis assay using complete human sera)
Type: cell-based
Design: with complete human sera (Complement Technology, Tyler Tex.) and polypeptides; tissue Complement Technology, Tyler Tex; host or cells: complete human serum
[1] = inhibition of lysis of antibody-sensitized sheep erythrocytes, complete human sera

| SMILES | IC50 [1] [µM] | IC50 (7-azatryptophan variant polypeptides of R3008, inhibition of red blood cell lysis) [µM] | IC50 (7-azatryptophan variant polypeptides of R3002, inhibition of red blood cell lysis) [µM] |
| --- | --- | --- | --- |
| CCC[C@H](NC(=O)[C@@H]1CSCc2cccc(c2)CSC[C@H](NC(=O)[C@@H](NC(C)=O)C2CCCCC2)C(=O)N[C@@H](c2ccccc2)C(=O)N[C@@H]([C@@H](C)O)C(=O)N[C@@H](Cc2c[nH]c3ncccc23)C(=O)N[C@@H](CCC(=O)O)C(=O)N[C@@H](Cc2ccc(O)cc2)C(=O)N(C)[C@@H](CO)C(=O)N[C@@H](C)C(=O)N1)C(N)=O [Compound R3089, [mXylyl(2,10)]Ac-Chg-C-Phg-T-azaTrp-E-Y-(N-Me)S-A-C-Nvl-NH2] (Ac-[Chg]C[Phg]T[Trp(7-aza)]EY[NMeS]AC[Nva]-NH2; linker 2-10 via mXylylene) | > 15 | – | – |
| CCC[C@H](NC(=O)[C@@H]1CSCc2cccc(c2)CSC[C@H](NC(=O)[C@H](CCC)NC(C)=O)C(=O)N[C@@H](Cc2ccccc2)C(=O)N[C@@H]([C@@H](C)O)C(=O)N[C@@H](Cc2c[nH]c3ncccc23)C(=O)N[C@@H](CCC(=O)O)C(=O)N[C@@H](Cc2ccc(O)cc2)C(=O)N(C)[C@@H](CO)C(=O)N[C@@H](C)C(=O)N1)C(N)=O [Compound R3090, [mXyly1(2,10)]Ac-Nvl-C-F-T-azaTrp-E-Y-(N-Me)S-A-C-Nvl-NH2] (Ac-[Nva]CFT[Trp(7-aza)]EY[NMeS]AC[Nva]-NH2; linker 2-10 via mXylylene) | > 100 | – | – |
| CCC[C@H](NC(=O)[C@@H]1CSCc2cccc(c2)CSC[C@H](NC(=O)[C@H](CCC)NC(C)=O)C(=O)N[C@@H](c2ccccc2)C(=O)N[C@@H]([C@@H](C)O)C(=O)N[C@@H](Cc2c[nH]c3ccccc23)C(=O)N[C@@H](CCC(=O)O)C(=O)N[C@@H](Cc2ccc(O)cc2)C(=O)N(C)[C@@H](CO)C(=O)N[C@@H](C)C(=O)N1)C(N)=O [Compound R3091, [mXylyl(2,10)]Ac-Nvl-C-Phg-T-W-E-Y-(N-Me)S-A-C-Nvl-NH2] (Ac-[Nva]C[Phg]TWEY[NMeS]AC[Nva]-NH2; linker 2-10 via mXylylene) | 0.483 | – | – |
| CCC[C@H](NC(=O)[C@@H]1CSCc2cccc(c2)CSC[C@H](NC(=O)[C@H](CCC)NC(C)=O)C(=O)N[C@@H](c2ccccc2)C(=O)N[C@@H]([C@@H](C)O)C(=O)N[C@@H](Cc2ccccc2)C(=O)N[C@@H](CCC(=O)O)C(=O)N[C@@H](Cc2ccc(O)cc2)C(=O)N(C)[C@@H](CO)C(=O)N[C@@H](C)C(=O)N1)C(N)=O [Compound R3092, [mXylyl(2,10)]Ac-Nvl-C-Phg-T-F-E-Y-(N-Me)S-A-C-Nvl-NH2] (Ac-[Nva]C[Phg]TFEY[NMeS]AC[Nva]-NH2; linker 2-10 via mXylylene) | > 50 | > 50 | – |
| CCC[C@H](NC(=O)[C@@H]1CSCc2cccc(c2)CSC[C@H](NC(=O)[C@H](CCC)NC(C)=O)C(=O)N[C@H](C2CCCCC2)C(=O)N[C@@H]([C@@H](C)O)C(=O)N[C@@H](Cc2c[nH]c3ncccc23)C(=O)N[C@@H](CCC(=O)O)C(=O)N[C@@H](Cc2ccc(O)cc2)C(=O)N(C)[C@@H](CO)C(=O)N[C@@H](C)C(=O)N1)C(N)=O [Compound R3093, [mXylyl(2,10)]Ac-Nvl-C-(D-Chg)-T-azaTrp-E-Y-(N-Me)S-A-C-Nvl-NH2] (Ac-[Nva]C[dChg]T[Trp(7-aza)]EY[NMeS]AC[Nva]-NH2; linker 2-10 via mXylylene) | > 100 | – | – |
| CCC[C@H](NC(=O)[C@@H](NC(=O)[C@@H]1CCCN1C(=O)[C@H](Cc1ccc(O)cc1)NC(=O)[C@H](CCC(=O)O)NC(=O)[C@H](Cc1c[nH]c2ccc(OC)cc12)NC(=O)[C@H](Cc1ccc(O)cc1)NC(=O)[C@@H](NC(=O)[C@H](CC(N)=O)NC(=O)[C@H](CCC(=O)O)NC(=O)[C@H](Cc1ccc(O)cc1)NC(C)=O)C(C)(C)C)c1ccccc1)C(N)=O [Compound R3094, Ac-Y-E-N-Tbg-Y-(5-MeO)W-E-Y-P-Phg-Nvl-NH2] | > 100 | – | > 100 |
| CCC[C@H](NC(=O)[C@@H]1CSCc2cccc(c2)CSC[C@H](NC(=O)[C@H](CCC)NC(C)=O)C(=O)N[C@@H](c2ccccc2)C(=O)N[C@@H]([C@@H](C)O)C(=O)N[C@@H](Cc2c[nH]c3ncccc23)C(=O)N[C@@H](CCC(=O)O)C(=O)N[C@@H](CCc2ccccc2)C(=O)N(C)[C@@H](CO)C(=O)N[C@@H](C)C(=O)N1)C(N)=O [Compound R3095, [mXyly1(2,10)]Ac-Nvl-C-Phg-T-azaTrp-E-(homo)F-(N-Me)S-A-C-Nvl-NH2] (Ac-[Nva]C[Phg]T[Trp(7-aza)]E[hPhe][NMeS]AC[Nva]-NH2; linker 2-10 via mXylylene) | > 50 | – | – |
| CCC[C@H](NC(=O)[C@@H]1CSCc2cccc(c2)CSC[C@H](NC(=O)[C@H](CCC)NC(C)=O)C(=O)N[C@@H](c2ccccc2)C(=O)NC(C)(C)C(=O)N[C@@H](Cc2c[nH]c3ncccc23)C(=O)N[C@@H](CCC(=O)O)C(=O)N[C@@H](Cc2ccc(O)cc2)C(=O)N(C)[C@@H](CO)C(=O)N[C@@H](Cc2c[nH]cn2)C(=O)N1)C(N)=O [Compound R3096, [mXylyl(2,10)]Ac-Nvl-C-Phg-Aib-azaTrp-E-Y-(N-Me)S-H-C-Nvl-NH2] (Ac-[Nva]C[Phg][Aib][Trp(7-aza)]EY[NMeS]HC[Nva]-NH2; linker 2-10 via mXylylene) | > 50 | – | – |
| CCC[C@H](NC(=O)[C@@H]1CSCc2cccc(c2)CSC[C@H](NC(=O)[C@H](CCC)NC(C)=O)C(=O)N[C@@H](c2ccccc2)C(=O)N[C@@H]([C@@H](C)O)C(=O)N[C@@H](Cc2c[nH]c3ncccc23)C(=O)N[C@@H](CC(=O)O)C(=O)N[C@@H](Cc2ccc(O)cc2)C(=O)N(C)[C@@H](CO)C(=O)N[C@@H](C)C(=O)N1)C(N)=O [Compound R3097, [mXylyl(2,10)]Ac-Nvl-C-Phg-T-azaTrp-D-Y-(N-Me)S-A-C-Nvl-NH2] (Ac-[Nva]C[Phg]T[Trp(7-aza)]DY[NMeS]AC[Nva]-NH2; linker 2-10 via mXylylene) | > 100 | – | – |
| CCC[C@H](NC(=O)[C@@H]1CSCc2cccc(c2)CSC[C@H](NC(=O)[C@H](CCC)NC(C)=O)C(=O)N[C@@H](c2ccccc2)C(=O)N[C@@H]([C@@H](C)O)C(=O)N[C@@H](Cc2c[nH]c3ncccc23)C(=O)N[C@@H](CCC(N)=O)C(=O)N[C@@H](Cc2ccc(O)cc2)C(=O)N(C)[C@@H](CO)C(=O)N[C@@H](C)C(=O)N1)C(N)=O [Compound R3098, [mXylyl(2,10)]Ac-Nvl-C-Phg-T-azaTrp-Q-Y-(N-Me)S-A-C-Nvl-NH2] (Ac-[Nva]C[Phg]T[Trp(7-aza)]QY[NMeS]AC[Nva]-NH2; linker 2-10 via mXylylene) | > 100 | – | – |
| CCC[C@H](NC(=O)[C@@H]1CSCc2cccc(c2)CSC[C@H](NC(=O)[C@H](CCC)NC(C)=O)C(=O)N[C@@H](c2ccccc2)C(=O)N[C@@H]([C@@H](C)O)C(=O)N[C@@H](Cc2c[nH]c3ncccc23)C(=O)N[C@@H](CC(N)=O)C(=O)N[C@@H](Cc2ccc(O)cc2)C(=O)N(C)[C@@H](CO)C(=O)N[C@@H](C)C(=O)N1)C(N)=O [Compound R3099, [mXylyl(2,10)]Ac-Nvl-C-Phg-T-azaTrp-N-Y-(N-Me)S-A-C-Nvl-NH2] (Ac-[Nva]C[Phg]T[Trp(7-aza)]NY[NMeS]AC[Nva]-NH2; linker 2-10 via mXylylene) | > 100 | – | – |
| CCC[C@H](NC(=O)[C@@H]1CSCc2cccc(c2)CSC[C@H](NC(=O)[C@H](CCC)NC(C)=O)C(=O)N[C@@H](c2ccccc2)C(=O)N[C@@H]([C@@H](C)O)C(=O)N[C@@H](Cc2c[nH]c3ncccc23)C(=O)N[C@@H](CCC(=O)O)C(=O)N[C@@H](Cc2ccccc2)C(=O)N(C)[C@@H](CO)C(=O)N[C@@H](C)C(=O)N1)C(N)=O [Compound R3100, [mXylyl(2,10)]Ac-Nvl-C-Phg-T-azaTrp-E-F-(N-Me)S-A-C-Nvl-NH2] (Ac-[Nva]C[Phg]T[Trp(7-aza)]EF[NMeS]AC[Nva]-NH2; linker 2-10 via mXylylene) | 0.626 | – | – |
| CCC[C@H](NC(=O)[C@@H]1CSCc2cccc(c2)CSC[C@H](NC(=O)[C@H](CCC)NC(C)=O)C(=O)N[C@@H](c2ccccc2)C(=O)N[C@@H]([C@@H](C)O)C(=O)N[C@@H](Cc2c[nH]c3ncccc23)C(=O)N[C@@H](CCC(=O)O)C(=O)N[C@@H](Cc2ccc(O)cc2)C(=O)N(C)[C@@H](CO)C(=O)N[C@@H](Cc2c[nH]cn2)C(=O)NCC(=O)N1)C(N)=O [Compound R3101, [mXylyl(2,10)]Ac-Nvl-C-Phg-T-azaTrp-E-Y-(N-Me)S-A-H-G-Nvl-NH2] (Ac-[Nva]C[Phg]T[Trp(7-aza)]EY[NMeS]HGC[Nva]-NH2; linker 2-11 via mXylylene) | > 100 | – | – |
| CCC[C@H](NC(=O)[C@@H]1CSCc2cccc(c2)CSC[C@H](NC(=O)[C@H](CCC)NC(C)=O)C(=O)N[C@@H](c2ccccc2)C(=O)N[C@@H]([C@@H](C)O)C(=O)N[C@@H](Cc2c[nH]c3ncccc23)C(=O)N[C@@H](CCC(=O)O)C(=O)N[C@@H](Cc2ccc(O)cc2)C(=O)N2CCC[C@H]2C(=O)N[C@@H](Cc2c[nH]cn2)C(=O)N1)C(N)=O [Compound R3102, [mXylyl(2,10)]Ac-Nvl-C-Phg-T-azaTrp-E-Y-P-H-C-Nvl-NH2] (Ac-[Nva]C[Phg]T[Trp(7-aza)]EYPHC[Nva]-NH2; linker 2-10 via mXylylene) | 0.978 | – | – |
| CCC[C@H](NC(=O)[C@@H]1CSCc2cccc(c2)CSCC[C@H](NC(=O)[C@H](CCC)NC(C)=O)C(=O)N[C@@H](c2ccccc2)C(=O)N[C@@H]([C@@H](C)O)C(=O)N[C@@H](Cc2c[nH]c3ncccc23)C(=O)N[C@@H](CCC(=O)O)C(=O)N[C@@H](Cc2ccc(O)cc2)C(=O)N(C)[C@@H](CO)C(=O)N[C@@H](Cc2c[nH]cn2)C(=O)N1)C(N)=O [Compound R3103, [mXylyl(2,10)]Ac-Nvl-homoC-Phg-T-azaTrp-E-Y-(N-Me)S-H-C-Nvl-NH2] (Ac-[Nva][hCys][Phg]T[Trp(7-aza)]EY[NMeS]HC[Nva]-NH2; linker 2-10 via mXylylene) | > 25 | – | – |
| CCC[C@H](NC(=O)[C@@H]1CSCc2ccc(cc2)CSCC[C@H](NC(=O)[C@H](CCC)NC(C)=O)C(=O)N[C@@H](c2ccccc2)C(=O)N[C@@H]([C@@H](C)O)C(=O)N[C@@H](Cc2c[nH]c3ncccc23)C(=O)N[C@@H](CCC(=O)O)C(=O)N[C@@H](Cc2ccc(O)cc2)C(=O)N(C)[C@@H](CO)C(=O)N[C@@H](Cc2c[nH]cn2)C(=O)N1)C(N)=O [Compound R3104, [pXylyl(2,10)]Ac-Nvl-homoC-Phg-T-azaTrp-E-Y-(N-Me)S-H-C-Nvl-NH2] (Ac-[Nva][hCys][Phg]T[Trp(7-aza)]EY[NMeS]HC[Nva]-NH2; linker 2-10 via pXylylene) | > 2 | – | – |
